We go through five compounds from PMC6037002, “Drug targeting to decrease cardiotoxicity – determination of the cytotoxic effect of GnRH-based conjugates containing doxorubicin, daunorubicin and methotrexate on human cardiomyocytes and endothelial cells” (Beilstein Journal of Organic Chemistry, 2018).

Where two headings read alike, the source gives them in different places.

The subject of data set [1] is human umbilical vein endothelial cells (HUVEC). Kind of data set: Impedimetric measurement (xCELLigence SP), delta slope, HUVEC. The conditions noted are these: for delta slope (DS), short-term / delta slope (DS), long-term: HUVEC, three parallels; for delta slope (DS), short-term: 0–2 h; for delta slope (DS), long-term: 0–72 h; for cytotoxic effect on HUVEC, result in words: long-term (0–72 h), 10^−8–10^−6 mol/L, impedimetry, one-way ANOVA. The text has this:
(§1) The main objective of the study reported here was to evaluate the in vitro cardiotoxic effects (as undesired side effects) of […] GnRH-III-based conjugates containing doxorubicin, daunorubicin and methotrexate on two essential target cells of cardiovascular diseases: vascular endothelial cells and cardiomyocytes. The rate of cytotoxicity (antitumor effect) vs cardiotoxicity (toxic effects on cardiomyocytes and vascular endothelium) is an important factor for efficient drug development for targeted tumor therapy with minimized side effects. The technique used in this work – impedimetry – is a dedicated one for real-time monitoring of cells to distinguish short-term (0–2 hours) and long-term (0–72 hours) effects elicited by the drug or carrier–drug conjugates. The basic theory of impedimetry is that proliferation/viability of cells is well detectable by monitoring of the electric impedance (Z) in an AC environment, due to the electric insulator character of intact surface membranes composed of the phospholipid bilayer. […] While cell physiological responses of short-term exposures result in characteristic changes of cell morphology (e.g., spreading), long-term effects characteristically influence in particular the proliferation of cells, and therefore the cytotoxic effects. The presented dimensionless values of delta slope (DS) measure the difference between the slope of the curve corresponding to the treatment and that of the control curve in impedimetric recordings, the negative signs refer to the relative values to the identical control.
(§2) Experimental part – Cellular samples
(§3) In the present study, GnRH conjugates containing anti-tumour drugs (e.g., daunorubicin, doxorubicin) were investigated in order to evaluate whether the conjugates exert a decrease cardiotoxic effect compared to that of the free drugs. The cardiac myocytes and the vascular endothelium cells are the most frequently detected target cells of antitumor compounds and they are employed in our study. Human umbilical vein endothelial cells (HUVEC; Promocell, Biomedica, Wien, Austria) were cultured in Endothelial Cell Growth Medium with Endothelial Cell Growth Supplement Mix (Promocell, Biomedica, Wien, Austria) and 100 µg/mL penicillin/streptomycin. Primary human cardiac myocytes (HCM; Promocell, Biomedica, Wien, Austria) were cultured in Myocyte Growth Medium (Promocell, Biomedica, Wien, Austria).
(§4) Impedimetric measurements
(§5) The xCELLigence SP system was used for impedimetric measurements. The bottom of the wells of a 96-well E-plate is installed with a golden electrode array that constitutes the adhesion surface. Adhering cells – acting as insulators – change the electric impedance measured on the electrodes. The measured impedance change is in direct correlation with the number of adhering cells and the extent of adhesion. The results of impedance change are given in the form of Cell Index (CI) calculated by the xCELLigence system according to the […]
(§6) where Zt is the measured impedance in a time point, Zb is the background impedance and F is an inbuilt factor (F = 15 at 10 kHz) depending on the frequency of the alternating current. The measurements took place in an incubator holding a 37 °C temperature and 5% carbon-dioxide […]
(§7) The experiments started with a measurement of baseline impedance for 1 hour. After that, the cells (10^4 cells/well) were added to the wells and allowed to adhere to the electrodes. When the adhering cells reached a balanced state in the wells, signified by the impedance curves […]
(§8) free drugs at 10−12 – 10−6 M and the conjugates at 10−8 – 10−6 M final concentrations were […]
(§9) added to the wells. The changes in impedance were measured for at least 72 hours. For each measurement three parallels were measured.
(§10) The evaluation of responses followed the previously described strategy: acute effects of compounds were evaluated as a characteristic morphology of the curves in the 0–2 hours

In data set [2] the test system is MCF-7 human breast adenocarcinoma cells. The conditions noted are these: MTT assay; cited from earlier work. From the text: (§11) Table 1 Comparative study of cytotoxic effects and cardiotoxicity elicited by GnRH-based antitumor compounds (1–15) and reference substances (AN-152, Dox, Dau, Mtx). IC50 values show antitumor cytotoxic characteristics of the conjugates in human breast cancer (MCF-7), human colorectal adenocarcinoma (HT-29) and human acute monocytic leukemia (MM6) derived cell lines as representative tumor cells.

Data set [3] deals with HT-29 human colon adenocarcinoma cells. The conditions noted are these: MTT assay; cited from earlier work.
Description: as §11

The subject of data set [4] is human acute monocytic leukemia (MonoMac6) cells. The conditions noted are these: cited from earlier work.
Description: as §11

Data set [5] has as its system primary human cardiac myocytes (HCM). The conditions noted are these: for delta slope (DS), short-term / delta slope (DS), long-term: HCM, three parallels; for delta slope (DS), short-term: 0–2 h; for delta slope (DS), long-term: 0–72 h.
Description: as §1, §2, §3, §4, §5, §6, §7, §8, §9, §10

Where [6] appears, read: grade +++/++/+/0, key not given, summary of impedimetric cytotoxicity.

Turning to `COc1cccc2c1C(=O)c1c(O)c3c(c(O)c1C2=O)C[C@@](O)(C(=O)CO)C[C@@H]3O[C@H]1C[C@H](N)[C@H](O)[C@H](C)O1` [doxorubicin], in data set [1], the “Cardiotoxicity, HUVEC” value was “+++”. Also, the “delta slope (DS), short-term” value in data set [1] (Table S1a, 10^-6 mol/L) is given as 0.063; in data set [1] (Table S1a, 10^-7 mol/L) it was 0.037; in data set [1] (Table S1a, 10^-8 mol/L), -0.008; in data set [1] (Table S1a, 10^-9 mol/L), 0.003; in data set [1] (Table S1a, 10^-10 mol/L), -0.004; in data set [1] (Table S1a, 10^-11 mol/L), 0.021. The “delta slope (DS), short-term” value is reported as 0.008 in data set [1] (Table S1a, 10^-12 mol/L); 0.012 in data set [1] (Table S2a, 10^-6 mol/L); 0.032 in data set [1] (Table S2a, 10^-7 mol/L); 0.002 in data set [1] (Table S2a, 10^-8 mol/L); 0.019 in data set [5] (Table S1b, 10^-6 mol/L); 0.003 in data set [5] (Table S1b, 10^-7 mol/L). In addition, the “delta slope (DS), short-term” value in data set [5] (Table S1b, 10^-8 mol/L) is 0.001; in data set [5] (Table S1b, 10^-9 mol/L), -0.001; in data set [5] (Table S1b, 10^-10 mol/L) it was 0.002; in data set [5] (Table S1b, 10^-11 mol/L), 0.002; in data set [5] (Table S1b, 10^-12 mol/L) it was 0.001; in data set [5] (Table S2b, 10^-6 mol/L), 0.057. Moreover, the “delta slope (DS), short-term” value is -0.001 in data set [5] (Table S2b, 10^-7 mol/L) and 0.001 in data set [5] (Table S2b, 10^-8 mol/L). The IC50 in data set [2] is 100 nM; in data set [3], 100 nM; in data set [4] it was 7 ± 0.1 nM. Further, the “Cardiotoxicity, HCM” value in data set [5] is “+++”.

In the case of `CN(Cc1cnc2nc(N)nc(N)c2n1)c1ccc(C(=O)N[C@@H](CCC(=O)O)C(=O)O)cc1` [methotrexate], in data set [1], the “Cardiotoxicity, HUVEC” value is “+”. Also, the “delta slope (DS), short-term” value in data set [1] (Table S1a, 10^-6 mol/L) is recorded as 0.001; in data set [1] (Table S1a, 10^-7 mol/L), 0.002; in data set [1] (Table S1a, 10^-8 mol/L), 0.013; in data set [1] (Table S1a, 10^-9 mol/L), 0.019; in data set [1] (Table S1a, 10^-10 mol/L), 0.012; in data set [1] (Table S1a, 10^-11 mol/L), 0.013. For the same compound, the “delta slope (DS), short-term” value is 0.015 in data set [1] (Table S1a, 10^-12 mol/L); 0.005 in data set [1] (Table S5a, 10^-6 mol/L); 0.003 in data set [1] (Table S5a, 10^-7 mol/L); -0.003 in data set [1] (Table S5a, 10^-8 mol/L); 0.005 in data set [5] (Table S1b, 10^-6 mol/L); 0.001 in data set [5] (Table S1b, 10^-7 mol/L). The “delta slope (DS), short-term” value in data set [5] (Table S1b, 10^-8 mol/L) was 0.001; in data set [5] (Table S1b, 10^-9 mol/L), -0.001; in data set [5] (Table S1b, 10^-10 mol/L), 0.001; in data set [5] (Table S1b, 10^-11 mol/L), 0.001; in data set [5] (Table S1b, 10^-12 mol/L), 0.002; in data set [5] (Table S5b, 10^-6 mol/L) it was 0.001. Besides, the half-maximal inhibitory concentration (IC50) in data set [3] is 1400 ± 600 nM; in data set [4], 8 ± 0.2 nM. Moreover, in data set [5], the “Cardiotoxicity, HCM” value is given as 0. Moreover, the “cytotoxic effect on HCM, result in words” value in data set [5] is “no significant effect was measured”.

With “{[^4N-MeSer]-GnRH-III(Dau=Aoa-C)}2 (disulfide) [conjugate 10]”, the “delta slope (DS), short-term” value is on record as 0.017 in data set [1] (Table S4a, 10^-6 mol/L); 0.011 in data set [1] (Table S4a, 10^-7 mol/L); 0.008 in data set [1] (Table S4a, 10^-8 mol/L); 0.001 in data set [5] (Table S4b, 10^-6 mol/L); -0.001 in data set [5] (Table S4b, 10^-7 mol/L); -0.002 in data set [5] (Table S4b, 10^-8 mol/L). For the same compound, the “delta slope (DS), long-term” value in data set [1] (Table S4a, 10^-6 mol/L) was 0.004; in data set [1] (Table S4a, 10^-7 mol/L), 0.002; in data set [1] (Table S4a, 10^-8 mol/L), 0.001; in data set [5] (Table S4b, 10^-6 mol/L), −0.005; in data set [5] (Table S4b, 10^-7 mol/L), −0.003; in data set [5] (Table S4b, 10^-8 mol/L), -0.001. Also, in data set [1] (setting [6]), the “Cardiotoxicity, HUVEC” value stood at 0. Further, the “cytotoxic effect on HUVEC, result in words” value in data set [1] is listed as “completely lost the cytotoxic effect”. The IC50 in data set [2] is 6200 ± 1500 nM; in data set [4] it was 783 ± 90 nM.

In the case of “{GnRH-III(Dau=Aoa-YRRL-C)}2 [conjugate 11]”, the “delta slope (DS), short-term” value is recorded as 0.014 in data set [1] (Table S4a, 10^-6 mol/L); 0.002 in data set [1] (Table S4a, 10^-7 mol/L); 0.022 in data set [1] (Table S4a, 10^-8 mol/L); -0.004 in data set [5] (Table S4b, 10^-6 mol/L); -0.001 in data set [5] (Table S4b, 10^-7 mol/L); -0.001 in data set [5] (Table S4b, 10^-8 mol/L). The “delta slope (DS), long-term” value in data set [1] (Table S4a, 10^-6 mol/L) is given as −0.017; in data set [1] (Table S4a, 10^-7 mol/L) it was −0.005; in data set [1] (Table S4a, 10^-8 mol/L), 0.001; in data set [5] (Table S4b, 10^-6 mol/L) it was −0.004; in data set [5] (Table S4b, 10^-7 mol/L), -0.002; in data set [5] (Table S4b, 10^-8 mol/L), -0.001. The IC50 in data set [4] is 420 ± 50 nM.

Consider [GnRH-III(Dau=Aoa-C)]2 [conjugate 9], for which the “delta slope (DS), short-term” value in data set [1] (Table S4a, 10^-6 mol/L) is recorded as 0.014; in data set [1] (Table S4a, 10^-7 mol/L), 0.008; in data set [1] (Table S4a, 10^-8 mol/L), 0.001; in data set [5] (Table S4b, 10^-6 mol/L), 0.003; in data set [5] (Table S4b, 10^-7 mol/L), 0.002; in data set [5] (Table S4b, 10^-8 mol/L), -0.001. Besides, the “delta slope (DS), long-term” value in data set [1] (Table S4a, 10^-6 mol/L) was 0.001; in data set [1] (Table S4a, 10^-7 mol/L) it was -0.001; in data set [1] (Table S4a, 10^-8 mol/L), -0.002; in data set [5] (Table S4b, 10^-6 mol/L), -0.001; in data set [5] (Table S4b, 10^-7 mol/L) it was -0.001; in data set [5] (Table S4b, 10^-8 mol/L), -0.002. Further, the “Cardiotoxicity, HUVEC” value in data set [1] (setting [6]) was 0. In addition, in data set [1], the “cytotoxic effect on HUVEC, result in words” value was “completely lost the cytotoxic effect”. Moreover, the IC50 in data set [2] is 4100 ± 800 nM; in data set [4] it was 1690 ± 410 nM. In addition, the “Cardiotoxicity, HCM” value in data set [5] (setting [6]) is reported as 0. Further, in data set [5] (long-term (0–72 h), 10^−8–10^−6 mol/L (free drugs 10^−12–10^−6 mol/L), impedimetry, one-way ANOVA), the “cytotoxic effect on HCM, result in words” value is recorded as “completely lost their cytotoxic effect”.
